Measurements from US7368470B2, “Substituted 3-pyrrolidine-indole derivatives” (Gruenenthal GmbH, priority 2003, dated 2008).

Key:
[1] = target: T1, noradrenalin reuptake (NA uptake) (Rattus norvegicus, UniProt Q9WTR4); test: Noradrenalin reuptake inhibition (NA uptake inhibition) in rat brain synaptosomes; type: biochemical; conditions: synaptosomes from male rats' brains
T1 construct: These vesicular particles were isolated from the hypothalamus of male rats' brains for NA uptake; from tissue; host or cells: rat brain synaptosomes (P2 fraction; cerebral cortex / hypothalamus of male rats)
Text: b) Tests on Noradrenalin Reuptake Inhibition
In order to be able to carry out these in vitro studies, synaptosomes from rats' cerebral cortices were freshly isolated. A “P2” fraction, prepared according to Gray and Whittaker's instructions (E. G. Gray and V. P. Whittaker (1962) J. Anat. 76, 79-88) was used in each case. These vesicular particles were isolated from the hypothalamus of male rats' brains for NA uptake.
A detailed description of the method may be found in the literature (M. Ch. Frink, H.-H. Hennies, W. Englberger, M. Haurand and B. Wilffert (1996) Arzneim.-Frosch./Drug Res. 46 (III), 11, 1029-1036).

[2] = target: T2, serotonin reuptake (5HT uptake) (Rattus norvegicus, UniProt P31652); test: Serotonin reuptake inhibition (5HT uptake inhibition) in rat brain synaptosomes; type: biochemical; conditions: synaptosomes from male rats' brains
T2 construct: These vesicular particles were isolated from the hypothalamus of male rats' brains for 5HT uptake; from tissue; host or cells: rat brain synaptosomes (P2 fraction; cerebral cortex / hypothalamus of male rats)
Text: a) Tests on Serotonin Reuptake Inhibition
In order to be able to carry out these in vitro studies, synaptosomes from rats' cerebral cortices were freshly isolated. A “P2” fraction prepared according to Gray and Whittaker's instructions (E. G. Gray and V. P. Whittaker (1962) J. Anat. 76, 79-88) was used in each case. These vesicular particles were isolated from the hypothalamus of male rats' brains for 5HT uptake.
A detailed description of the method may be found in the literature (M. Ch. Frink, H.-H. Hennies, W. Englberger, M. Haurand and B. Wilffert (1996) Arzneim.-Forsch./Drug Res. 46 (III), 11, 1029-1036).

[3] = system: binding site 2 of the sodium channel (batrachotoxin (BTX) binding site); test: Binding test on the sodium channel, binding site 2 (BTX bond), [3H]-batrachotoxinin A20 α-benzoate as ligand; parameters: species or system rat; conditions: 10 μM; rat cerebrocortex synaptosomes; ligand 10 nM; 25° C., 120 min

T1 sequence (Q9WTR4 1-597): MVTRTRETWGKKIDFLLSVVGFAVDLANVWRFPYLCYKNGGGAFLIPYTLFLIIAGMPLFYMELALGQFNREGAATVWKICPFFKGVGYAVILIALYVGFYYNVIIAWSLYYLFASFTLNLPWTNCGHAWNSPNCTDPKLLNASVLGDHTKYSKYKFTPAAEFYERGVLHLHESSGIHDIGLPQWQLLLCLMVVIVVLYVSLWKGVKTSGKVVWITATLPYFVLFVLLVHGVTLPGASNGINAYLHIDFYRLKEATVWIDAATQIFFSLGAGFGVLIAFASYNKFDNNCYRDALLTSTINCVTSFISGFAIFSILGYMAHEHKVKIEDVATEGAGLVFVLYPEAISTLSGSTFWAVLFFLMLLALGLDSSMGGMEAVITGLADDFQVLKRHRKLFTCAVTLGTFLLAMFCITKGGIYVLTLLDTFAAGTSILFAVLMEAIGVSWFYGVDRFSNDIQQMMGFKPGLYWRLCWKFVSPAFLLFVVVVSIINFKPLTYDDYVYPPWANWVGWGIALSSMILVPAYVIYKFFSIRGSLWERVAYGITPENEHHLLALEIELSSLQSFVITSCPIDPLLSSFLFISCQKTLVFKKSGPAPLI
T2 sequence (P31652 whole entry): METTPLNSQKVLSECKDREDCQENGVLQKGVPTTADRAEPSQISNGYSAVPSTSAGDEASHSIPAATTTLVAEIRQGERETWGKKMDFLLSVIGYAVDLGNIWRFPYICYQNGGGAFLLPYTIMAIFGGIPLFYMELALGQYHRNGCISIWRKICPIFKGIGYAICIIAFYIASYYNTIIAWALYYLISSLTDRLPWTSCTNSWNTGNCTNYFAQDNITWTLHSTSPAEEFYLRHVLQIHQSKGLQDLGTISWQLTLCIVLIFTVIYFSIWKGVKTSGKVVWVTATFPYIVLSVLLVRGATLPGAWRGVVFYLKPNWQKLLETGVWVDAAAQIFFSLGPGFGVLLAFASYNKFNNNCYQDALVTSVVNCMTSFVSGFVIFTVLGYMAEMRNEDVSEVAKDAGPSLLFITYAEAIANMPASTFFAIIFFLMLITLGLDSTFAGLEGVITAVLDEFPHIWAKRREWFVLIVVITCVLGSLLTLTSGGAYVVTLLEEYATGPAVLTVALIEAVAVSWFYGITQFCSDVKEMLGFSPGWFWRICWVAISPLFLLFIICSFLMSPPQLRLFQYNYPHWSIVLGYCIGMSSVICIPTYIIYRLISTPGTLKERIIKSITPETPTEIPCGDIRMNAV

inhibition at 10 µM [1] [%]	inhibition at 10 µM [2] [%]	SMILES	5HT uptake, % inhibition [10 μM] [2] [%]	NA-uptake, inhibition [10 μM] [1]	BTX bond, % inhibition [10 μM] [3] [%]
49	49	O=C(c1ccc(SC(F)(F)F)cc1)N1CCC(c2c[nH]c3ccccc23)C1 (stereo not shown) [Compound 18, [3-(1H-indol-3-yl)-pyrrolidin-1-yl]-(4-trifluoromethylsulphanyl-phenyl)-methanone]			
59	53	O=[N+]([O-])c1ccc(S(=O)(=O)N2CCC(c3c[nH]c4ccccc34)C2)cc1 (stereo not shown) [Compound 24, 3-[1-(4-nitro-benzenesulphonyl)-pyrrolidin-3-yl]-1H-indole]			
44		CCn1cc(C2CCN(C(=O)c3c(-c4ccccc4Cl)noc3C)C2)c2ccccc21 (stereo not shown) [Compound 32, [3-(2-chloro-phenyl)-5-methyl-isoxazol-4-yl]-[3-(1-ethyl-1H-indol-3-yl)-pyrrolidin-1-yl]-methanone]			
43	64	CSc1ncccc1C(=O)N1CCC(c2cn(C)c3ccccc23)C1 (stereo not shown) [Compound 37, [3-(1-methyl-1H-indol-3-yl)-pyrrolidin-1-yl]-(2-methylsulphanyl-pyridin-3-yl)-methanone]			
43	66	Cn1cc(C2CCN(C(=O)c3cccnc3Cl)C2)c2ccccc21 (stereo not shown) [Compound 40, (2-chloro-pyridin-3-yl)-[3-(1-methyl-1H-indol-3-yl)-pyrrolidin-1-yl]-methanone]			
43	44	COCC(=O)N1CCC(c2cn(Cc3cccc(OC)c3)c3ccccc23)C1 (stereo not shown) [Compound 41, 2-methoxy-1-{3-[1-(3-methoxy-benzyl)-1H-indol-3-yl]-pyrrolidin-1-yl}-ethanone]			
100	68	CC#CCn1cc(C2CCN(CC(=O)Nc3cc(C)nn3C)C2)c2ccccc21 (stereo not shown) [Compound 49, 2-[3-(1-but-2-ynyl-1H-indol-3-yl)-pyrrolidin-1-yl]-N-(2,5-dimethyl-2H-pyrazol-3-yl)-acetamide]			
57		CCN(CC)C(=O)Cn1cc(C2CCN(CC(=O)Nc3ccc(C(F)(F)F)cc3)C2)c2ccccc21 (stereo not shown) [Compound 51, N,N-diethyl-2-(3-{1-[(4-trifluoromethyl-phenylcarbamoyl)-methyl]-pyrrolidin-3-yl}-indol-1-yl)-acetamide]			

Continued, molecule first:

SMILES	inhibition at 10 µM [1] [%]	inhibition at 10 µM [2] [%]	5HT uptake, % inhibition [10 μM] [2] [%]	NA-uptake, inhibition [10 μM] [1]	BTX bond, % inhibition [10 μM] [3] [%]
CN(C)C(=O)Cn1cc(C2CCN(C(=S)Nc3cccc(C(F)(F)F)c3)C2)c2ccccc21 (stereo not shown) [Compound 16, N,N-dimethyl-2-{3-[1-(3-trifluoromethyl-phenylthiocarbamoyl)-pyrrolidin-3-yl]-indol-1-yl}-acetamide]	50				
CCn1cc(C2CCN(C(=O)c3cccnc3)C2)c2ccccc21 (stereo not shown) [Compound 28]			41	52	
COc1cccc(Cn2cc(C3CCN(C(=O)CCc4ccccc4)C3)c3ccccc32)c1 (stereo not shown) [Compound 36, 1-{3-[1-(3-methoxy-benzyl)-1H-indol-3-yl]-pyrrolidin-1-yl}-3-phenyl-propan-1-one]		42			96
COc1cccc(Cn2cc(C3CCN(C(=O)c4ccc(C)cc4)C3)c3ccccc32)c1 (stereo not shown) [Compound 43, {3-[1-(3-methoxy-benzyl)-1H-indol-3-yl]-pyrrolidin-1-yl}-p-tolyl-methanone]		48			92
C#CCn1cc(C2CCN(C(=O)c3cccnc3SC)C2)c2ccccc21 (stereo not shown) [Compound 44, (2-methylsulphanyl-pyridin-3-yl)-[3-(1-prop-2-inyl-1H-indol-3-yl)-pyrrolidin-1-yl]-methanone]			60	49	
CCn1cc(C2CCN(C(=O)c3ccc(C(F)(F)F)cc3)C2)c2ccccc21 (stereo not shown) [Compound 48, [3-(11-ethyl-1H-indol-3-yl)-pyrrolidin-1-yl]-(4-trifluoromethyl-phenyl)-methanone]			43	40	
